According to patent US20130045940A1, “COMPOSITION COMPRISING AS ACTIVE INGREDIENT L-CARNITINE IN COMBINATION WITH A SOLAR FILTER, FOR THE PREVENTION AND/OR TREATMENT OF PATHOLOGIES OF THE EYE DUE TO ULTRAVIOLET RADIATION” (SIGMA-TAU INDUSTRIE FARMACEUTICHE RIUNITE S.P.A., priority 2010, published 2013):

How the values were obtained:
corneal epithelium = test: protective effect on the corneal epithelium against UV A/B radiation in rabbits (morphology, TUNEL); format: in vivo, rabbit; conditions: for damage to the DNA (TUNEL) / corneal tissue morphology (hematoxylin-eosin): treated left eye after UV exposure; for corneal tissue morphology (hematoxylin-eosin): compared with untreated animals; for EYE LEFT Score (arbitrary scale): treated left eye, instilled every 2 hours for eight hours, then 2091 seconds of UV 290/360 nm, Negative Control = 10, UV-exposed untreated right eye = 1
Method: In all the groups treated (groups 1-4) the right eye acted as a positive control. The following compositions were instilled respectively into the left eye every 2 hours for eight hours:
Then the animals were exposed for 2091 seconds to UV radiation using a xenon-mercury lamp, 5000 W, 290/360 nm, (Photochem. Photobiol. 1989; 49:175-180) after which the animals were killed and the eyeballs removed and placed in a fixative (4% paraformaldehyde). The cornea was then removed, included in paraffin and then evaluated for its morphological aspects and the cellular degeneration. The morphology was examined by means of hematoxylin-eosin staining whereas the cellular parameters were examined with vital exclusion stains and the TUNEL technique (analysis of DNA fragmentation, by means of terminal transferase, as a consequence of cellular stress) (Arch. Ophthalmol. 1987; 115:1031-1035).

[1] = solubility of 3-HKG in water; format: physicochemical; conditions: amount of 0.1 mg/mL (as in WO2008/077712)
[2] = test system: functional retinal status; test: functional retinal status (FERG, mfERG) in subjects with age-related maculopathy, 6 months of eye drops; format: in vivo, human; conditions: for amplitudes found with the FERG / mfERG: after 6 months treatment vs before; for SCORE AFTER 6 MONTHS OF TREATMENT (ARBITRARY SCALE): three times a day for 6 months, 0 = no variation respect to time zero, −10 = worsening of the symptoms
Method: In order to evaluate the protective effect of the eye drops being examined on the internal structures of the eye in subjects suffering from age-related maculopathy, the following experimental procedure was carried out. 24 Subjects between 49 and 74 years of age, irrespective of gender, received for 6 months the eye drops of Example 1 (complete composition) three times a day. Subjects were subdivided into 4 equal groups and treated as reported in the following: The functional retinal status of the patients was evaluated using the focal electroretinogram (FERG) and the multifocal electroretinogram (mfERG) methods, before and after 6 months treatment. These two methods are useful for evaluating the electrical activity of the 30° retinal centres (Invest. Ophthalmol. Vis. Sci., 1986; 27: 1123-1130; Eye, 2005; 19:431-441).

Row | SMILES | damage to the DNA (TUNEL) (corneal epithelium) | corneal tissue morphology (hematoxylin-eosin) (corneal epithelium) | EYE LEFT Score (arbitrary scale) (corneal epithelium) | solubility in water [1] | amplitudes found with the FERG [2] | mfERG [2] | SCORE AFTER 6 MONTHS OF TREATMENT (ARBITRARY SCALE) [2] [arbitrary scale]
1 | Nc1c(O[C@@H]2O[C@H](CO)[C@@H](O)[C@H](O)[C@H]2O)cccc1C(=O)CC(N)C(=O)O (mixture of isomers) [Group 3, 3-Hydroxykynurenine O-β-DL-glucoside] | no damage to the DNA was seen | tissue appeared damaged although this was not very apparent | 4 | not (completely) soluble in water | substantial stability | significant worsening | −4
2 | C[N+](C)(C)C[C@H](O)CC(=O)[O-] [Group 2, L-carnitine] | no damage to the DNA was seen | tissue appeared damaged | 3 | – | reduction | significant worsening | −6
